The source of these data is patent publication US7071221B2, “Heterocyclic oxime compounds” (Les Laboratoires Servier, priority 2004, dated 2006).

In this data set the test system is ob/ob mouse. Nature of the data set: Antidiabetic and hypolipidaemic effect in the ob/ob mouse. Format: in vivo. To be noted: female ob/ob mouse; for decrease of glycaemia compared to the control group: twice per day for four days (10 mg/kg i.p. or 30 mg/kg per os; route not given), glycaemia 24 hours after final administration. An excerpt: Mutations in laboratory animals and also different sensitivities to dietary regimens have allowed the development of animal models having non-insulin dependent diabetes and hyperlipidaemia associated with obesity and with resistance to insulin.
Genetic mice models (ob/ob) (Diabetes, 1982, 31 (1), 1–6) and Zucker (fa/fa) rats have been developed by various laboratories in order to understand the physiopathology of those diseases and test the efficacy of new antidiabetic compounds (Diabetes, 1983, 32, 830–838).
Antidiabetic and Hypolipidaemic Effect in the ob/ob Mouse
The 10-week-old female ob/ob mouse (Harlan) is used for the in vivo tests. The animals are kept in a light-darkness cycle of 12 hours at 25° C. The mouse has a basal hyperglycaemia of 2 g/l. The animals are randomly selected in terms of their glycaemia to form groups of six. The compounds tested by the intraperitoneal route are dissolved in a mixture of dimethyl sulphoxide (10%) and Solutol (15%) to be administered at 10 mg/kg in a volume of 2.5 ml/kg twice per day for four days. By the per os route, the compounds are tested at 30 mg/kg administered in a volume of 2.5 ml/kg of 1% HEC twice per day for four days. The control groups receive the solvents under the same conditions as the treated groups. The activity of the products is evaluated by measuring glycaemia 24 hours after the final administration and by measuring body weight daily.

For `CON=C(c1ccccc1)c1ccc2c(c1)sc(=O)n2CCOc1ccc(CC(OCC(F)(F)F)C(=O)OC)cc1` (centres unmarked) [Example 3, Methyl 3-{4-[2-(6-[(methoxyimino)(phenyl)methyl]-2-oxo-1,3-benzothiazol-3(2H)-yl)ethoxy]phenyl}-2-(2,2,2-trifluoroethoxy)-propanoate], the “decrease of glycaemia compared to the control group” value came out at 51%. The “decrease of the gain of weight compared to the control group” value (twice per day for four days) was found to be 80%.
Consider `CN(CCOc1ccc(CC2SC(=O)NC2=O)cc1)c1ccccn1` (centres unmarked) [Rosiglitazone, rosiglitazone], for which the “decrease of glycaemia compared to the control group” value is recorded as 61%. For the same compound, where the note is “four days treatment, body weight measured daily”, the “change in body weight” value is recorded as “significant increase”. Also, the “increase of the body weight compared to the increase of body weight of the control group” value (twice per day for four days) stood at 33%.
